Consider three molecules from patent US20100143500A1, “Methods and Compositions for Inhibiting GSK-3 In Glial Cell Related Disorders” (THE OHIO STATE UNIVERSITY RESEARCH FOUNDATION, priority 2006, published 2010).

The subject of series [1] is glioma cells. Put plainly: propidium iodide exclusion and metabolic cell viability assays. It is filed as cell-based. To be noted: under conditions that block cell motility.
Series [2] has as its system three additional glioma cell lines and two human glioblastoma biopsies (X12 and X14). The procedure:
Spheroids from 6 glioma cell lines were grown in the presence of LiCl (10 mM or 20 mM).
Cell lines and chemicals. The U87 and U87ΔEGFR cell lines were provided by Dr. Webster Cavenee (Ludwig Institute for Cancer Research, La Jolla, Calif.). The human glioblastoma biopsies, X12 and X14 (from Dr. C. David James, Mayo Clinic, Rochester, Minn.), were maintained as flank tumors in nude mice as described (5). All cells were grown in DMEM with 10% FBS and 1% penicillin-streptomycin.

In series [3] the test system is U87 glioma cell spheroids. Put plainly: U87 glioma spheroid invasion in collagen I matrix.
Procedure: U87 control spheroid after 96 hours expansion in type I collagen with 20 mM NaCl.
Time course of U87 spheroid invasion, in the presence of increasing concentrations of LiCl. Measurements were taken daily over a period of four days.
Time course of spheroid expansion with 20 mM LiCl washed out from U87 spheres at 24 hour intervals. Subsequent expansion was monitored microscopically.
To investigate the role of GSK-3 in glioma invasion, experiments were carried out to examine the effects of lithium chloride (LiCl), a known inhibitor of GSK-3, on the invasion of U87 glioma cell spheroids embedded in a collagen I matrix.
The target of series [4] is T1, inositol monophosphatase (IMP) (Homo sapiens, UniProt P29218).
T1 sequence (P29218 1-277): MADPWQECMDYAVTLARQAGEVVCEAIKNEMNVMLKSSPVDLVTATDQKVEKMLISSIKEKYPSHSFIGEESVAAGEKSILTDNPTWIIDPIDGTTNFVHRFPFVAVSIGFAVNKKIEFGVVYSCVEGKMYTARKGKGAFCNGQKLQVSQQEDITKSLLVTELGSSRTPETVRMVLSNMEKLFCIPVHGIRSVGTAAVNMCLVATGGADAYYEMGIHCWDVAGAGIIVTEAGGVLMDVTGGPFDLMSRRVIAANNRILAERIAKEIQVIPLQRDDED
To be noted: cited from earlier work.

With `O=C1NC(=O)C(c2ccccc2[N+](=O)[O-])=C1Nc1ccc(O)c(Cl)c1` [SB415286], in series [1], the cytotoxicity entry is listed as “Minimal cytotoxicity”.

As for `COc1ccc(CNC(=O)Nc2ncc([N+](=O)[O-])s2)cc1` [AR-A014418], the “spheroid expansion as a percentage of control spheres” value was “dose dependent decrease in spheroid expansion” in series [2] (X12 cells, 96 hours) and “dose dependent decrease in spheroid expansion” in series [3] (U87 cells, 96 hours). Further, the “spheroid invasion in further glioma cell lines and biopsies” value in series [2] (panel of glioma cell lines, X12 and X14) is “observed in the full panel of cell lines”. In series [1], the cytotoxicity entry is “Minimal cytotoxicity”. In addition, the “invasion of glioma spheroids” value in series [3] (U87 spheroids embedded in collagen I matrix) is reported as “dose-dependent blockade of invasion”. Besides, the “reversibility of the invasion blockade” value in series [3] (after removal of inhibitor, assay up to 96 hours) was “reversible”.

For `CC(Oc1ccc(O)cc1)(P(=O)(O)O)P(=O)(O)O` [L-690, 330], the “potency as IMP inhibitor relative to lithium” value in series [4] was 1000 fold. Moreover, in series [3] (concentrations as high as 400 μM), the effect on invasion result was “no effect on invasion”.
